Converted amounts (≈) assume the structure as drawn. Read-outs that look alike come from different tables or passages of the source.
Key:
chicken liver FAS [1] = target: T1, chicken liver FAS (Gallus gallus, UniProt P12276); experiment: FAS overall reaction, fast-binding inhibition (NADPH decrease at 340 nm); format: biochemical
T1 construct: The purification, storage, and application of the chicken liver FAS were conducted following established procedures; from tissue; host or cells: chicken liver (chickens from Huadu Broiler Corporation, Beijing)
T1 sequence (P12276 whole entry): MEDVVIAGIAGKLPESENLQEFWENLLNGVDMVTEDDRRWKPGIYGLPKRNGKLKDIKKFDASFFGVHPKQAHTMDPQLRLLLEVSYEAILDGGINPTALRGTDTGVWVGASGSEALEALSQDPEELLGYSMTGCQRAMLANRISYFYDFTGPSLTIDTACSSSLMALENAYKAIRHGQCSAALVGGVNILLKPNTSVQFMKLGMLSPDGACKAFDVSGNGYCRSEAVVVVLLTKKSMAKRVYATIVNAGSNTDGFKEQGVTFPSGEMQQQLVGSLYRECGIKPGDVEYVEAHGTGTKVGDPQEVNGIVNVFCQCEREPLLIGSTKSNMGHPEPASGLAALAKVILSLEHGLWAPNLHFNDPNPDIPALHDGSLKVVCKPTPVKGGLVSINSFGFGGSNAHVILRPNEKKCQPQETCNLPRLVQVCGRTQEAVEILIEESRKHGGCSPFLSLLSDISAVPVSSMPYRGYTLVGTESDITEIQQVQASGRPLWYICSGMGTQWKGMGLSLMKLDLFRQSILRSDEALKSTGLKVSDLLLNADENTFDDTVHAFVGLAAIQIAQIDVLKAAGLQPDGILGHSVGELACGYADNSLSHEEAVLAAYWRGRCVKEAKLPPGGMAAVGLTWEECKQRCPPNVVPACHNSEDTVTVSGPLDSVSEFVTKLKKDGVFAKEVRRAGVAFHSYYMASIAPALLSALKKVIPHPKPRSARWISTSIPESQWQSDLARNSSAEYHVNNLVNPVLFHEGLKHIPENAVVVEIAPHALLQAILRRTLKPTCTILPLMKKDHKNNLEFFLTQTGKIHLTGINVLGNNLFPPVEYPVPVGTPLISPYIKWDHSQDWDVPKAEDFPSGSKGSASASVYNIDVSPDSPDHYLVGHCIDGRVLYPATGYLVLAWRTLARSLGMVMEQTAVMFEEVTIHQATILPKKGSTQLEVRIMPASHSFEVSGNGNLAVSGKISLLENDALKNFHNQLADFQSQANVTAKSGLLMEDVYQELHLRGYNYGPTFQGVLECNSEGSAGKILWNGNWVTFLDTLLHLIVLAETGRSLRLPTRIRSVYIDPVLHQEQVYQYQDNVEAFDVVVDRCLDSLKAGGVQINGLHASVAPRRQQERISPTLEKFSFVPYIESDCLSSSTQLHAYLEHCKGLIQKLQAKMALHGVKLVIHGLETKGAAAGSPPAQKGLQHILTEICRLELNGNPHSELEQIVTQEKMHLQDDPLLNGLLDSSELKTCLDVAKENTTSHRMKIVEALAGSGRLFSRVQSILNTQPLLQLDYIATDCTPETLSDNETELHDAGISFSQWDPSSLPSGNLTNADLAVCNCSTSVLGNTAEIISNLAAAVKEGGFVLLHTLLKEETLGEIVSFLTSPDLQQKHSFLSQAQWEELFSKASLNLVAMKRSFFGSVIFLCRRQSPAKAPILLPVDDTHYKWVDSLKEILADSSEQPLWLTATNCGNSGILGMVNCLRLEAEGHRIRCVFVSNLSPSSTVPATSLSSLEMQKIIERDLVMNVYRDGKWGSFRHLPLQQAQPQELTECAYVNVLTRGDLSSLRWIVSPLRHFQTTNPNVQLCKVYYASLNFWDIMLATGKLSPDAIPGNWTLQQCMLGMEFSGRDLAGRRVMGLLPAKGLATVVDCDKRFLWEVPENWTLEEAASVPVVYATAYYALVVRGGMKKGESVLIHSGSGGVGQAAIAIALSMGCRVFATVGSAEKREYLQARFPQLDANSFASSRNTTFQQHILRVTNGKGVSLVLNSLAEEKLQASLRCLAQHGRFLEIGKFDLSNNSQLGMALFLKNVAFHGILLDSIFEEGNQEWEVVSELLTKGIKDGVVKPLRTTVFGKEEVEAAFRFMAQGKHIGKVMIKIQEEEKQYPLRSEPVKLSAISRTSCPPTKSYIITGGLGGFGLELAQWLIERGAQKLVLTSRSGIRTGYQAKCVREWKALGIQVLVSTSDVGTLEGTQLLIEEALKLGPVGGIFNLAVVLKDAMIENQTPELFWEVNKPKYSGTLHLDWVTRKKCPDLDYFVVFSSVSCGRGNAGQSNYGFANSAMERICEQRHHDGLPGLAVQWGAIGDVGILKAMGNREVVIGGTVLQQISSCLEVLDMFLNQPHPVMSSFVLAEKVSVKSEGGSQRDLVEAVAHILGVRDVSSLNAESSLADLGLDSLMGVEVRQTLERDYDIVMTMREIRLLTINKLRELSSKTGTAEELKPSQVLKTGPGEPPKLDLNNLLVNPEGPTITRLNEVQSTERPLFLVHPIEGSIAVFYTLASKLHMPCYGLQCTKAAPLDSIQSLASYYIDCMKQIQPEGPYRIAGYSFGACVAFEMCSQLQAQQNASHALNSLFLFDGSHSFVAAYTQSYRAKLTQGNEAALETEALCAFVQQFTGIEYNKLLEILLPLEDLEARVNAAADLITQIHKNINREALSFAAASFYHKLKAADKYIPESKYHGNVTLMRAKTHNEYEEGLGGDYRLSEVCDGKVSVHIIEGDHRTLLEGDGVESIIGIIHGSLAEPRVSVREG
Experimental: (§1) The FAS employed in this study was sourced from chicken liver, given that the amino acid sequence of chicken FAS shares 63% identity with its human counterpart. The chickens were purchased from Huadu Broiler Corporation, Beijing, China. The purification, storage, and application of the chicken liver FAS were conducted following established procedures. Animal procedures adhered to the Guidelines for the Care and Use of Laboratory Animals as set forth by the Beijing Association for Laboratory Animal Science. […] Concentrations of the enzyme and substrates were determined through absorption measurements, with extinction coefficients being utilized as previously outlined.
(§2) The overall reaction of FAS and the β-ketoacyl reduction facilitated by KR (a functional domain of FAS) were assessed using an Amersham Pharmacia Ultrospec 4300 pro UV-Vis spectrophotometer (GE Healthcare China Company, Beijing, China) at 37 °C by monitoring the decrease of NADPH at 340 nm. The overall reaction mixture comprised potassium phosphate buffer (100 mM, pH 7.0), ethylenediaminetetraacetic acid (EDTA) (1 mM), 1,4-dithiothreitol (DTT) (1 mM), acetyl-CoA (6 µM), malonyl-CoA (12 µM), NADPH (37.5 µM), and chicken liver FAS (10 µg), with a total volume of 2.0 mL. For the KR reaction, the mixture included ethyl acetoacetate (40 mM), NADPH (35 µM), 1 mM of EDTA, and the enzyme (15 µg) in 100 mM of phosphate buffer at pH 7.0, with a total volume of 2.0 mL [41].
(§3) The extent of inhibition was quantified by determining the IC50 value through a plot of residual activity against varying inhibitor concentrations.

[2] = target: T2, intracellular FAS activity in LoVo cells (Homo sapiens, UniProt P49327); experiment: Intracellular FAS activity assay; format: cell-based
T2 construct: the cells were sonicated at 4 °C and centrifuged at 12,000 rpm for 15 min at 4 °C to obtain particle-free supernatants; endogenous in cells; host or cells: CaCo2, LoVo, SW620
T2 sequence (P49327 whole entry): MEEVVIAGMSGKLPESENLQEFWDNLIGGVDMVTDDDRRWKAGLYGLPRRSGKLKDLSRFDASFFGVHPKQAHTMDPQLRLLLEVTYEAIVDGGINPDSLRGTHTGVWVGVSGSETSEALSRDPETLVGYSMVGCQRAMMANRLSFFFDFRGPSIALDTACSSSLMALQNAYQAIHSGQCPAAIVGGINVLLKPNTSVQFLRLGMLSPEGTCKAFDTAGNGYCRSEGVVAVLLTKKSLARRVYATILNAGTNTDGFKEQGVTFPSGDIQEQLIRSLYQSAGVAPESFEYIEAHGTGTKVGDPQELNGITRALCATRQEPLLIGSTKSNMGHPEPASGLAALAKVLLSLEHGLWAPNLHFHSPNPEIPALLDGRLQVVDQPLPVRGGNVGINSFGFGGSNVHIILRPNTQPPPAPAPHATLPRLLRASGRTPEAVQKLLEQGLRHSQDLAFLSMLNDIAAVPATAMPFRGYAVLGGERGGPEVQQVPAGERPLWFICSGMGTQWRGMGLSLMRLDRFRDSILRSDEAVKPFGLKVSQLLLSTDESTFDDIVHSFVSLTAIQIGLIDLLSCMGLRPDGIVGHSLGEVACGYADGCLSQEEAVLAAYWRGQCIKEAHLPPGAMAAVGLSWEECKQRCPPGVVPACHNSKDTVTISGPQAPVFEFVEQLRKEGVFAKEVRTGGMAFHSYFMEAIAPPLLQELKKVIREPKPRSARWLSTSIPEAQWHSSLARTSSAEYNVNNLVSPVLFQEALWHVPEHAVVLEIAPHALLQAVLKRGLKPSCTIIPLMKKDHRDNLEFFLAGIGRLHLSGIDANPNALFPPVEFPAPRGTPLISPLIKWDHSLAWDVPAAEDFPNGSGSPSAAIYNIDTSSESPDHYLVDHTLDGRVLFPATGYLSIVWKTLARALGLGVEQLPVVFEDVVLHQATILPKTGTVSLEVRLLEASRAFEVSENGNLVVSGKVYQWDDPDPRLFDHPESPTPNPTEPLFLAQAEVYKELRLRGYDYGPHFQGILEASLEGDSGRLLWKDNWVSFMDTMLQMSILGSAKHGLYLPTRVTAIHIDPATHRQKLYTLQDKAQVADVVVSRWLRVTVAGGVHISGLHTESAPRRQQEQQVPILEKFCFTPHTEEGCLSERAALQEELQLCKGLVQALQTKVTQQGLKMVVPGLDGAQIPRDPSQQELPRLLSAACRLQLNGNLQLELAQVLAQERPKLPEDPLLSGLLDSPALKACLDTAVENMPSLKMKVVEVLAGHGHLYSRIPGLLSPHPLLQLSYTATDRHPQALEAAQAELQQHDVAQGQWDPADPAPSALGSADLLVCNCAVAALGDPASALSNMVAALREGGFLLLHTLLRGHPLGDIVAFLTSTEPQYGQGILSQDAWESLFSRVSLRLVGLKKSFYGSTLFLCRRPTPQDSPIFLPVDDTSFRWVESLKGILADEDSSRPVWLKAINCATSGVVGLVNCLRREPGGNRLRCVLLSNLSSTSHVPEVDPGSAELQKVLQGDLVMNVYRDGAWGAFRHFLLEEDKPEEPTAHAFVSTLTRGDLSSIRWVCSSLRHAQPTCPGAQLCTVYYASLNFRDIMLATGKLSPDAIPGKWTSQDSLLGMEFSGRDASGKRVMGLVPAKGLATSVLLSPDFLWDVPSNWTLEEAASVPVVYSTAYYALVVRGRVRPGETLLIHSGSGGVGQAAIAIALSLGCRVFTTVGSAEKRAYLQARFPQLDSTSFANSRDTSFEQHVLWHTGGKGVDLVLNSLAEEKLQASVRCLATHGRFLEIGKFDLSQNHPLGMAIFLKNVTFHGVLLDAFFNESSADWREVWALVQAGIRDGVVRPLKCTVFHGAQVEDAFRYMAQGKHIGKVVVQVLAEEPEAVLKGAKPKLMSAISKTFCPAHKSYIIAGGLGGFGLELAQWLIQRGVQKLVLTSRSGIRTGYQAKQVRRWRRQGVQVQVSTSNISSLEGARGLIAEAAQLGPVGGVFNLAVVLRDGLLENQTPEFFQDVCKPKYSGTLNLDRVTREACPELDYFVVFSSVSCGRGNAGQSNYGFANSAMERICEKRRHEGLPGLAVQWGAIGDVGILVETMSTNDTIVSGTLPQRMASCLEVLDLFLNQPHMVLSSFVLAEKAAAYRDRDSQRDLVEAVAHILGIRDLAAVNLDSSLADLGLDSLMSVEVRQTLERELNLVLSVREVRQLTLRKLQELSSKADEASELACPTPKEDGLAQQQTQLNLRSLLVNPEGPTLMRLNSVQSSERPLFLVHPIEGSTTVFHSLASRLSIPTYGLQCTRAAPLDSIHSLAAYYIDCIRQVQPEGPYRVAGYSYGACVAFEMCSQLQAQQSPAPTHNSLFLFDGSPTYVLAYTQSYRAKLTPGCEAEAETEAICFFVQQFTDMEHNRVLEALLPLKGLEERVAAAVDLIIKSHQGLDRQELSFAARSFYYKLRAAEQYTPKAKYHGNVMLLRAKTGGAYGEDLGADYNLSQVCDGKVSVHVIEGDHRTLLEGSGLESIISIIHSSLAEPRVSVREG
Description: (§4) The human colon cancer cell lines CaCo2, LoVo, and SW620 were purchased from the Type Culture Collection of the Chinese Academy of Sciences (Shanghai, China). The CaCo2 cell line, originating from a human colon adenocarcinoma isolated in the 1970s, undergoes processes of proliferation, confluency, and differentiation during growth. […] LoVo, another cell line isolated in 1971 from the large intestine of a person with grade IV Dukes C colorectal cancer, offers applications in cancer, toxicology, and immuno-oncology research. SW620 cells, obtained from the large intestine of a person Dukes C colorectal cancer patient, are valuable resources for cancer and toxicology investigations. Cells were grown in Dulbecco’s Modified Eagle Medium (DMEM) supplemented with 10% fetal bovine serum (FBS) and were maintained in a humidified atmosphere containing 95% air and 5% CO2 at 37 °C.
(§5) Cells were exposed to LR for 24 h, followed by collection through trypsinization, centrifugation, triple washing, and resuspension in cold PBS. Subsequently, the cells were sonicated at 4 °C and centrifuged at 12,000 rpm for 15 min at 4 °C to obtain particle-free supernatants. The intracellular FAS activity was assessed spectrophotometrically by measuring the reduction in absorbance at 340 nm due to the oxidation of NADPH. A total volume of 500 µL of buffer comprising 50 µL of particle-free supernatant, 25 mM of KH2PO4-K2HPO4 buffer, 0.25 mM of EDTA, 0.25 mM of dithiothreitol, 30 µM of acetyl-CoA, and 350 µM of NADPH (pH 7.0) was monitored at 340 nm for 1 min to establish baseline NADPH oxidation. Following the addition of […] of malonyl-CoA, the reaction was further monitored for 1 min to determine FAS-dependent NADPH oxidation.

[3] = target: T3, intracellular FAS activity in SW620 cells (Homo sapiens, UniProt P49327); experiment: Intracellular FAS activity assay; format: cell-based
T3 construct: the cells were sonicated at 4 °C and centrifuged at 12,000 rpm for 15 min at 4 °C to obtain particle-free supernatants; endogenous in cells; host or cells: CaCo2, LoVo, SW620
T3 sequence (P49327 whole entry): as above
Description: as §4, §5

[4] = target: T4, intracellular FAS activity in CaCo2 cells (Homo sapiens, UniProt P49327); experiment: Intracellular FAS activity assay; format: cell-based; conditions: LR 60 µg/mL, 24 h
T4 construct: the cells were sonicated at 4 °C and centrifuged at 12,000 rpm for 15 min at 4 °C to obtain particle-free supernatants; endogenous in cells; host or cells: CaCo2, LoVo, SW620
T4 sequence (P49327 whole entry): as above
Description: as §4, §5

[5] = target: T5, KR (a functional domain of FAS) (Gallus gallus, UniProt P12276); experiment: KR reaction of FAS, fast-binding inhibition (ethyl acetoacetate, NADPH); format: biochemical, chicken
T5 construct: The purification, storage, and application of the chicken liver FAS were conducted following established procedures; from tissue; host or cells: chicken liver (chickens from Huadu Broiler Corporation, Beijing)
T5 sequence (P12276 whole entry, the tested form may be a part): as the sequence (P12276 whole entry) above
Experimental: as §1
as §2, with “For the KR reaction, the mixture included ethyl acetoacetate (40 mM), NADPH (35 µM), 1 mM of EDTA, and the enzyme (15 µg) in 100 mM of phosphate buffer at pH 7.0, with a total volume of 2.0 mL [41].” left out
as §3

[6] = target: T5, KR (a functional domain of FAS); experiment: Enzyme kinetics study, KR reaction of FAS (double reciprocal plots); format: biochemical, chicken; conditions: NADPH variable substrate, LR 0-15.0 μg/mL
Experimental: as §2
(§6) Double reciprocal plots were generated for each inhibitor concentration to determine the competitive relationship between the variable substrate and inhibitor concentrations. This study focused on examining fast-binding inhibition.

chicken liver FAS [7] = target: T1, chicken liver FAS; experiment: Enzyme kinetics study, FAS overall reaction (double reciprocal plots); format: biochemical; conditions: LR 0-15.0 μg/mL
Experimental: as §2, §6

CaCo2 cells = experiment: Cell viability, MTT assay; format: cell-based, human
Description: as §4
(§7) LR was examined to evaluate its inhibition on the proliferation of CaCo2, LoVo, and SW620 cells. CaCo2, LoVo, and SW620 cells were grown in 96-well plates until reaching confluence and were treated with either DMSO (1:1000) or increasing doses of LR for 24 h at 37 °C. Following this, the cell medium was replaced with fresh medium containing 500 µg/mL MTT. After a 4-h incubation at 37 °C, the plates were decanted, and 150 µL of DMSO was added to dissolve the formazan crystals. Subsequently, the plate was analyzed using a microplate spectrophotometer (Multiskan, MK3) (Thermo Fisher Scientific Inc., Waltham, MA, USA) at a wavelength of 492 nm. Each experiment was conducted five times on three separate occasions.

LoVo cells = experiment: Cell viability, MTT assay; format: cell-based, human; conditions: 24 h
Description: as §4, §7

SW620 cells = experiment: Cell viability, MTT assay; format: cell-based, human
Description: as §4, §7

[8] = fast-binding inhibition, 37 °C, mean ± SD, three experiments
[9] = fast-binding inhibition, 37 °C, mean ± SD, three experiments, read-out: FAS Inhibitory Activity IC50 (converted)
[10] = LR 25 μg/mL + palmitic acid 100 μM, 24 h, versus LR alone

CC1OC(OC2Cc3c(O)cc(O)cc3OC2c2ccc(O)cc2)C(O)C(O)C1O (stereo not shown) [AR, afzelechin-3-rhamnopyranoside]
FAS Inhibitory Activity IC50 (chicken liver FAS [1]; [8]): did not show a significant inhibitory effect | IC50 (chicken liver FAS [1]; [9]): > 476 µM

O=C(O[C@@H]1Cc2c(O)cc(O)cc2O[C@@H]1c1cc(O)c(O)c(O)c1)c1cc(O)c(O)c(O)c1 [EGCG, epigallocatechin gallate, reference compound]
FAS Inhibitory Activity IC50 (chicken liver FAS [1]; [8]): 24.8 ± 2.2 µg/mL

COc1cc(C2c3c(cc(OC)c(O)c3OC)CC(CO)C2COC2OCC(O)C(O)C2O)cc(OC)c1O (stereo not drawn) [LA, lyoniresinol-3α-O-β-arabinopyranoside]
FAS Inhibitory Activity IC50 (chicken liver FAS [1]; [8]): did not show a significant inhibitory effect | IC50 (chicken liver FAS [1]; [9]): > 362 µM

COc1cc(C2c3c(cc(OC)c(O)c3OC)CC(CO)C2COC2OC(C)C(O)C(O)C2O)cc(OC)c1O (stereo not drawn) [LR, lyoniresinol-3α-O-β-rhamnopyranoside]
IC50 ([2]; 24 h treatment): 45 µM | Relative FAS activity ([2]; LR 60 µg/mL, 24 h): under 20% | IC50 ([3]; 24 h treatment): 38.5 µM | Relative FAS activity ([3]; LR 60 µg/mL, 24 h): under 20% | Relative FAS activity [4]: under 20% | IC50 [5]: 56.3 µM | IC50 (chicken liver FAS [1]; [9]): 35.5 µM | IC50 (chicken liver FAS [1]; same value as 20.1 µg/mL given in molar unit, read-out: FAS inhibition IC50): 35.5 µM | Type of inhibition with respect to NADPH [6]: competitively | Type of inhibition with respect to acetyl-CoA (chicken liver FAS [7]; acetyl-CoA variable substrate): competitively | Type of inhibition with respect to malonyl-CoA (chicken liver FAS [7]; malonyl-CoA variable substrate): noncompetitively | IC50 (CaCo2 cells; Homo sapiens, Caco-2, 24 h, MTT): 28.4 µg/mL (≈ 50.1 µM) | Cell viability with exogenous palmitic acid (rescue) (CaCo2 cells; [10]): restored significantly | IC50 (LoVo cells; Homo sapiens, MTT): 24.9 µg/mL (≈ 43.9 µM) | Cell viability with exogenous palmitic acid (rescue) (LoVo cells; LR 25 μg/mL + palmitic acid 100 μM, versus LR alone): restored significantly | IC50 (SW620 cells; Homo sapiens, SW-620, 24 h, MTT): 22.1 µg/mL (≈ 39 µM) | Cell viability with exogenous palmitic acid (rescue) (SW620 cells; [10]): restored significantly
